Structures can show the parent of a compound that is named as a salt.

In one data set the test system is SSPN gene expression. Briefly: SSPN gene expression in tibialis anterior after intramuscular injection in mdx mice. The data set is classed as in vivo. The note with it: 3 mg/kg and 10 mg/kg intramuscular, 4 hours. How it is done:
(§1) For the preliminary safety assessment of OT-9, we performed IP injections in 6 month old C57/B16 males. The mice were injected with 100 μl of vehicle (5% DMSO (Sigma), 95% PBS), 100 μl of 30 mg/kg of OT-9 in vehicle, or 100 μl of 50 mg/kg of OT-9 in vehicle (n=1 mouse per treatment). […] For assessment of activity, 20-weeks old male mdx littermates were injected in both tibialis anterior muscles with vehicle (5% DMSO, 95% PBS) or 86 μg of OT-9. Two mice were injected in both TAs with vehicle and three mice were injected in both TAs with 200 of OT-9 (9.4 mM solution containing 86 μg of OT-9). After 4 hours, the muscles were harvested and processed for gene expression analysis. For assessment of activity of OT-9m after local administration, 19-22-weeks old mdx males were injected in both tibialis anterior muscles with vehicle (5% DMSO, 95% PBS) or 3 mg/kg and 10 mg/kg of OT-9m. After 4 hours, the muscles were harvested and processed for gene expression analysis. For assessment of activity of OT-9m after systemic administration, 13-weeks old mdx males were injected subcutaneously with vehicle (4% PEG-200 in hydroxypropyl-b-cyclodextrin) or 20 mg/kg/day of OT-9m. After 13 days of treatment, the muscles were harvested and processed for gene expression analysis.
After the preliminary safety evaluation, we tested the ability of OT-9 to increase SSPN gene expression in vivo. […] Five 20-weeks old male mdx littermates were subjected to intramuscular injections in both tibialis anterior (TA) muscles. Two mice were injected in both TAs with vehicle and […] were injected with 3 mg/kg of OT-9 (molar equivalent of 9.4 mM used in the safety assessment). After 4 hours of treatment, the TAs were harvested and processed for gene expression analysis. […] After determination that OT-9 is capable of increasing SSPN gene expression in vivo, we evaluated one of its derivatives, OT-9m, for its ability to increase SSPN expression in mdx mice. OT-9m was chosen based on its improved activity in vitro compared to OT-9 (compare, Table 1, entries 1 & 14). To assess activity OT-9m in vivo after local administration, eleven 19-22 weeks old male mdx mice were subjected to intramuscular injections in both tibialis anterior (TA) muscles. Four mice were injected in both TAs with vehicle, three mice were injected with 3 mg/kg of OT-9m and four mice were injected with 10 mg/kg of OT-9m. After 4 hours of treatment, the TAs were harvested and processed for gene expression analysis.
As for `COc1ccc2[nH]c(=O)c(C(=O)Nc3ccc(C(=O)N4CCCOCC4)cc3)cc2c1` [OT-9m, N-(4-(1,4-oxazepane-4-carbonyl)phenyl)-6-methoxy-2-oxo-1,2-dihydroquinoline-3-carboxamide], the “SSPN gene expression in tibialis anterior” value is given as “increased SSPN gene expression”.

Still in this data set, the particulars now being: OT-9m 3 mg/kg and 10 mg/kg intramuscular, both TA, 4 hours.
Take `COc1ccc2[nH]c(=O)c(C(=O)Nc3ccc(C(=O)N4CCCOCC4)cc3)cc2c1` [OT-9m, N-(4-(1,4-oxazepane-4-carbonyl)phenyl)-6-methoxy-2-oxo-1,2-dihydroquinoline-3-carboxamide]: the “adverse effects after local injection” value is recorded as “No adverse effects”.

A further data set relates to SSPN-HiBiT protein (sarcospan). Kind of data set: C2C12 SSPN-HiBiT protein reporter assay (12-well and 384-well format). The data set is classed as cell-based, murine. The note with it: SSPN-HiBiT C2C12 myotubes, 5 μM. As to the method: C2C12 SSPN-HiBiT myoblasts were seeded at 25,000 cells per well in 2 ml of growth media in 12 well-plates and incubated for 3 days. Upon reaching confluency, the growth media was replaced with 2 ml of differentiation media. At day 2 of differentiation, the media on the cells was replaced with 2 ml of differentiation media containing compounds at a final concentration of 5.5 μM in 0.06% DMSO. For vehicle control-treated cells, 0.06% DMSO was added to the cells. After 48 hrs the cells were washed with PBS and frozen for 2-24 hrs. The plates containing cells were thawed on ice and 100 μl of ice-cold modified RIPA buffer containing 1% Triton X-100, 0.05% DOC, 0.05% SDS, and Halt Protease Inhibitor was added to each well. Cells were scratched, transferred into 1.5 ml tubes, and centrifuged for 20 min at 16,000×g at 4° C. The cell lysates were transferred into new tubes. DC assay was performed on cell lysates to determine protein concentration. White walled, white bottom 384-well microplates (Greiner) were prefilled with 15 μl of PBS and 15 μl of cell lysates were added to each well in triplicate. Then 30 μl Nano-Glo HiBiT Lytic Detection working solution was added to each well and incubated for 30 min at RT with shaking. The luminescence was measured on the EnVision plate reader and the signal was normalized to protein concentration and signal from vehicle-treated controls.
C2C12 SSPN-HiBiT myoblasts were seeded at 500 cells per well in 50 μl of growth media in 384-well white, clear bottom microplates (Greiner) and incubated for 3 days. Upon reaching confluency, the growth media was replaced with 50 μl of differentiation media consisting of phenol-red free DMEM with 2% horse serum (Sigma-Aldrich) using an EL406 combination washer dispenser (Biotek). At day 2 of differentiation, the media on the cells was aspirated, left with a residual volume of 10 μl, and replaced with 30 μl of fresh differentiation media. 0.5 μl of small molecule in DMSO or DMSO alone (for vehicle and positive control wells) were added to each well using a Biomek Fx (Beckman). To ensure proper mixing of the DMSO, 50 μl of additional differentiation media was added to all wells except the positive control treated wells. The final concentration of compound in each treated well was 0.5-10 μM in 0.55% DMSO and 0.55% DMSO only for vehicle. After 48 hrs of incubation, the plate was washed with phenol red-free DMEM, aspirated, and left with a residual volume of 5 μl using EL406 combination washer dispenser. After the wash, 25 μl of differentiation media containing 12 μM DRAQ5 nuclear stain was added to reach a final concentration 10 μM in each well and incubated for 15 min at 37° C. with 5% CO2. The cells were imaged using ImageXpress Micro Confocal High Content Imaging System (Molecular Devices). The nuclei count of imaged cells were determined using a custom module analysis in MetaXpress Analysis software (Molecular Devices). After imaging and analysis, the plate was aspirated, left with a residual volume of 5 μl and placed at −80° C. for 2-24 hrs. The plate was thawed at RT and 25 μl of PBS was added, followed by 30 μl of Nano-Glo HiBiT Lytic Detection working solution prepared according manufacturer recommendations. Luminescence was measured using the EnVision plate reader and the signal of each well was normalized to nuclei count and signal from vehicle-treated controls.
In order to effectively test new analogues, we created method for detecting SSPN protein in cells, e.g., SSPN-HiBiT. SSPN-HiBiT based on a murine C2C12 cell line expressing endogenous SSPN protein with an N-term fusion protein called the HiBiT, an 11 amino acid subunit of a luciferase enzyme (FIG. 10a). The SSPN-HiBiT protein is quantified through addition of substrate and a larger subunit of the luciferase enzyme to catalyze the formation of luminescent signal. […]
With `O=C1Nc2ccc(I)cc2/C1=C/c1cc(Br)c(O)c(Br)c1` [GW5074, reference compound], the “increase in SSPN-HiBiT levels” value amounted to 1.35 fold.

Still in this data set, the particulars now being: Table 1; *p<0.05.
For `CCN(CC)c1ccc2cc(C(=O)Nc3ccc(C(=O)N4CCN(C)CC4)cc3)cnc2c1`, the “SSPN-HiBiT, fold change over vehicle” value was 1.47* fold change over vehicle.
As for `CCN(CC)C(=O)c1ccc(NC(=O)c2c(C)c3ccccc3[nH]c2=O)cc1` [N-(4-(diethylcarbamoyl)phenyl)-4-methyl-2-oxo-1,2-dihydroquinoline-3-carboxamide], the “SSPN-HiBiT, fold change over vehicle” value was 1.21* fold change over vehicle.
Turning to `COc1ccc2[nH]c(=O)c(C(=O)Nc3ccc(C(=O)N4CCCCCC4)cc3)cc2c1`, the “SSPN-HiBiT, fold change over vehicle” value is 1.03 fold change over vehicle.
For `COc1ccc2nc(C)c(C(=O)Nc3ccc(C(=O)N4CCCCCC4)cc3)cc2c1` [N-(4-(azepane-1-carbonyl)phenyl)-6-methoxy-2-methylquinoline-3-carboxamide], the “SSPN-HiBiT, fold change over vehicle” value was 1.4* fold change over vehicle.
On the same count and under the same terms, the result for `CCN(CC)C(=O)c1ccc(NC(=O)c2cc3ccc(F)cc3[nH]c2=O)cc1` [N-(4-(diethylcarbamoyl)phenyl)-7-fluoro-2-oxo-1,2-dihydroquinoline-3-carboxamide] reads 1.45* fold change over vehicle.
`COc1ccc2[nH]c(=O)c(C(=O)Nc3ccc(C(=O)N4CCCOCC4)cc3)cc2c1` [OT-9m, N-(4-(1,4-oxazepane-4-carbonyl)phenyl)-6-methoxy-2-oxo-1,2-dihydroquinoline-3-carboxamide]: the “SSPN-HiBiT, fold change over vehicle” value is recorded as 2.4* fold change over vehicle.
In the case of `CCN(CC)C(=O)c1ccc(NC(=O)c2cc3ccccc3nc2C)cc1` [N-(4-(diethylcarbamoyl)phenyl)-2-methylquinoline-3-carboxamide], the “SSPN-HiBiT, fold change over vehicle” value is listed as 1.08* fold change over vehicle.
On to `Nc1ccc2ncc(C(=O)Nc3ccc(C(=O)N4CCCOCC4)cc3)cc2c1` [N-(4-(1,4-oxazepane-4-carbonyl)phenyl)-6-aminoquinoline-3-carboxamide hydrochloride], for which the “SSPN-HiBiT, fold change over vehicle” value was 1.09* fold change over vehicle.
Same read-out and setting: the result for `COc1ccc2c(c1)CC(C(=O)Nc1ccc(C(=O)N3CCN(C)CC3)cc1)C(=O)N2` (stereo not drawn) reads 1.46* fold change over vehicle; that for `CCN(CC)C(=O)c1ccc(NC(=O)c2cc3cc(OC)ccc3[nH]c2=O)cc1`, 1.51* fold change over vehicle.
On to `CCN(CC)C(=O)c1ccc(NC(=O)c2cnc3cc(N(CC)CC)ccc3c2)cc1`, for which the “SSPN-HiBiT, fold change over vehicle” value is listed as 1.75* fold change over vehicle.
With `CCN(CC)c1ccc2cc(C(=O)Nc3ccc(C(=O)N4CCCOCC4)cc3)cnc2c1`, the “SSPN-HiBiT, fold change over vehicle” value was 1.3* fold change over vehicle.
Regarding `COc1ccc2nc(C)c(C(=O)Nc3ccc(C(=O)N4CCCOCC4)cc3)cc2c1`, the “SSPN-HiBiT, fold change over vehicle” value is 1.22* fold change over vehicle.
Still for that read-out and setting: the result for `CCN(CC)c1ccc2cc(C(=O)Nc3nnc(C(=O)N4CCOCC4)[nH]3)cnc2c1` reads 1.34* fold change over vehicle; that for `CCN(CC)c1ccc2cc(C(=O)Nc3ccc(C(=O)N4CCCCCC4)cc3)cnc2c1`, 1.62* fold change over vehicle.

The same data set, now with this note: Table 2; *p<0.05.
Turning to `Cc1cc(C)c2nc(OCC(=O)c3ccc(N(C)C)cc3)c(C#N)cc2c1` [2-(2-(4-(dimethylamino)phenyl)-2-oxoethoxy)-6,8-dimethylquinoline-3-carbonitrile], the “SSPN-HiBiT, fold change over vehicle” value is reported as 1.3* fold change over vehicle.
Take `Cc1cc2cc(C#N)c(SCC(=O)c3ccc(F)cc3)nc2cc1C` [2-((2-(4-fluorophenyl)-2-oxoethyl)thio)-6,7-dimethylquinoline-3-carbonitrile]: the “SSPN-HiBiT, fold change over vehicle” value is given as 1.48* fold change over vehicle.
Regarding `COc1ccc(C(=O)COc2nc3cc(C)c(C)cc3cc2C#N)cc1`, the “SSPN-HiBiT, fold change over vehicle” value is 1.27* fold change over vehicle.
Regarding `Cc1cc2cc(C#N)c(OCC(=O)c3ccc(O)cc3)nc2cc1C`, the “SSPN-HiBiT, fold change over vehicle” value stood at 1.21 fold change over vehicle.
Same read-out and setting: then `Cc1cc2cc(C#N)c(OCC(=O)c3ccc(F)cc3F)nc2cc1C`, with 1.22* fold change over vehicle; and `Cc1cc2cc(C#N)c(S(=O)(=O)CC(=O)c3ccc(F)cc3)nc2cc1C`, with 1.23* fold change over vehicle; and `Cc1cc(C)c(C#N)c(OCC(=O)c2ccc(N(C)C)cc2)n1` [2-(2-(4-(dimethylamino)phenyl)-2-oxoethoxy)-4,6-dimethylnicotinonitrile], with 1.09* fold change over vehicle.
As to `Cc1cc2cc(C#N)c(OCC(=O)c3ccc(N(C)C)cc3)nc2cc1C` [2-(2-(4-(dimethylamino)phenyl)-2-oxoethoxy)-6,7-dimethylquinoline-3-carbonitrile], the “SSPN-HiBiT, fold change over vehicle” value was 1.04* fold change over vehicle.

A further data set has as its system SSPN transcript. Kind of data set: SSPN gene expression after systemic (subcutaneous) treatment of mdx mice. The note with it: 20 mg/kg daily subcutaneous, 13 days, quadriceps. The format is in vivo. As to the method:
as §1, with “For assessment of activity of OT-9m after systemic administration, 13-weeks old mdx males were injected subcutaneously with vehicle (4% PEG-200 in hydroxypropyl-b-cyclodextrin) or 20 mg/kg/day of OT-9m. After 13 days of treatment, the muscles were harvested and processed for gene expression analysis.” left out
Followed by local administration, we evaluated ability of OT-9m to enhance SSPN expression in mdx mice after systemic treatment. […] We determined that mice overexpressing sarcospan by 1.5-fold were not rescued, while mice overexpressing sarcospan by 3-fold were rescued.
`COc1ccc2[nH]c(=O)c(C(=O)Nc3ccc(C(=O)N4CCCOCC4)cc3)cc2c1` [OT-9m, N-(4-(1,4-oxazepane-4-carbonyl)phenyl)-6-methoxy-2-oxo-1,2-dihydroquinoline-3-carboxamide]: the “increase of SSPN transcript” value is reported as 2 fold.

(Values after patent US20230348394A1, “COMPOSITIONS AND METHODS FOR TREATING MUSCULAR DYSTROPHIES” (The Regents of the University of California, priority 2020, published 2023).)
